SMILES strings stand for the structures. pIC50, pKi: −log10 of the molar value.

The target in experiment [1] is T1, Alpha-1A adrenergic receptor (Rattus norvegicus, UniProt P43140).
T1 sequence (P43140 whole entry): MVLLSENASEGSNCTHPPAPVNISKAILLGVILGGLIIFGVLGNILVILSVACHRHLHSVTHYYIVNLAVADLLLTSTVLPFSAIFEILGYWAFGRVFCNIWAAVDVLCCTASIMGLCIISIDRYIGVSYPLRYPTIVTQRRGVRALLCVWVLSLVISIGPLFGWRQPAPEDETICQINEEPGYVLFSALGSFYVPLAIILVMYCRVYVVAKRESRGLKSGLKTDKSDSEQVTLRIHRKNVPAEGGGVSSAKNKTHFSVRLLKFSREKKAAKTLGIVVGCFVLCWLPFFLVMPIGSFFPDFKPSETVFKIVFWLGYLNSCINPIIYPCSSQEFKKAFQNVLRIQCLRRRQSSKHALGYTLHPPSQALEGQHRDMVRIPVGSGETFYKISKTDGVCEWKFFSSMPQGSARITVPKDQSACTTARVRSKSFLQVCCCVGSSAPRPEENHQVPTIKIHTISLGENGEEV
Description: DRUGMATRIX: Alpha-1A adrenergic receptor radioligand binding (ligand: prazosin). The conditions noted are these: Not Active = under 50% inhibition at 10 µM. It is filed as cell membranes, Wistar, Submaxillary gland, Membrane.

Experiment [2] in a line: DRUGMATRIX: Atrial Natriuretic Factor (ANF) radioligand binding (ligand: [125I] ANF (rat)). The experiment is classed as cell membranes, Cavia porcellus, Dunkin-Hartley, Adrenal gland, Membrane. As to conditions: Not Active = under 50% inhibition at 10 µM.
Experiment [3] is described as follows: DRUGMATRIX: Calcium Channel Type L, Benzothiazepine radioligand binding (ligand: [3H] Diltiazem). The experiment is classed as cell membranes, Rattus norvegicus, Wistar, Brain, Membrane. The conditions noted are these: Not Active = under 50% inhibition at 10 µM.
Experiment [4] has as its target T2, 3-hydroxy-3-methylglutaryl-coenzyme A reductase (Homo sapiens, UniProt P04035).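 Also: enzyme inhibition assay of HMG-CoA reductase using radiolabeled [14C]HMG-CoA as substrate; in other assays of this panel Not Active means under 50% inhibition at 10 µM.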
T2 sequence (P04035 whole entry): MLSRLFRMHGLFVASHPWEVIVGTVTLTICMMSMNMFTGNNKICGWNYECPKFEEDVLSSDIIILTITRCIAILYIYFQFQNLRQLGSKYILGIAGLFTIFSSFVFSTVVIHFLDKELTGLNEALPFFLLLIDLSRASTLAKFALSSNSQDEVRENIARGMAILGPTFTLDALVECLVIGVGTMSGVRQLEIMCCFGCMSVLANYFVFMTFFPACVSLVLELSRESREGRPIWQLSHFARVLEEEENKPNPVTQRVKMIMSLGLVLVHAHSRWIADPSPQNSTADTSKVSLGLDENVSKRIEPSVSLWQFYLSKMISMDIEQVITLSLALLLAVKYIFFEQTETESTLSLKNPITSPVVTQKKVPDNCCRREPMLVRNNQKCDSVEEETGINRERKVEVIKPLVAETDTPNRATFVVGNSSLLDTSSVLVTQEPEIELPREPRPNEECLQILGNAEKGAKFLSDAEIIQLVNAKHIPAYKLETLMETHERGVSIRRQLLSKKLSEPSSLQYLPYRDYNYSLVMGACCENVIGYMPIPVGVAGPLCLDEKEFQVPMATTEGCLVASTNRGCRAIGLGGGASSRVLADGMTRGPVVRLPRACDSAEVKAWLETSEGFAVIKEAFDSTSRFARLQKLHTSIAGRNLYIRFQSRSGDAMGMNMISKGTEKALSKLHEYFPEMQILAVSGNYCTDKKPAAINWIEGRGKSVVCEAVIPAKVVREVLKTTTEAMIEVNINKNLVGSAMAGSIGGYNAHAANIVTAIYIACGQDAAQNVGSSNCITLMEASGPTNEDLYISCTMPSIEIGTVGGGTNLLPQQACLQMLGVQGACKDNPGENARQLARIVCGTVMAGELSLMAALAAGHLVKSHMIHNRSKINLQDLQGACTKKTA
Set-up: species or system Escherichia coli.

Experiment [5] in a line: DRUGMATRIX: Interleukin IL-1 radioligand binding (ligand: [125I] interleukin 1beta). The conditions noted are these: nih3t3; Not Active = under 50% inhibition at 10 µM. It is filed as cell membranes, Membrane.
In another experiment the target is T3, Interstitial collagenase (Homo sapiens, UniProt P03956).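 Also: MMP-1 enzyme inhibition assay using a peptide substrate; in other assays of this panel Not Active means under 50% inhibition at 10 µM.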
T3 sequence (P03956 whole entry): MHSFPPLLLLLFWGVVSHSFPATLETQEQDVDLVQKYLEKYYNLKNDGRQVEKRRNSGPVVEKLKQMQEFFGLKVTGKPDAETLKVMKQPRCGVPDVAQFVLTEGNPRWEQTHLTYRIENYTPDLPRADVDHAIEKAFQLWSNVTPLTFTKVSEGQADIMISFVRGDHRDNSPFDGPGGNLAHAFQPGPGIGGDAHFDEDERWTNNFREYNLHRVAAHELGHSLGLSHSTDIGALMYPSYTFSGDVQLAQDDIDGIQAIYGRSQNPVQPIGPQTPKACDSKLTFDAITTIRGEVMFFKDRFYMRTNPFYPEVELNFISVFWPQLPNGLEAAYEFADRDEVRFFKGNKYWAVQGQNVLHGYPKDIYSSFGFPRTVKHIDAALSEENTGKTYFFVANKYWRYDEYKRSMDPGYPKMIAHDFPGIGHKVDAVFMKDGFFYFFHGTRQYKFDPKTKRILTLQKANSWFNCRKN
It is filed as tissue-based, Rheumatoid synovial fibroblasts.

The next experiment deals with Adenosine receptor A2a (Homo sapiens, UniProt P29274). Kind of experiment: DRUGMATRIX: Adenosine A2A radioligand binding (ligand: […]). The conditions noted are these: hek293; Not Active = under 50% inhibition at 10 µM. The experiment is classed as cell membranes, HEK293, Membrane.
Sequence of Adenosine receptor A2a (P29274 whole entry): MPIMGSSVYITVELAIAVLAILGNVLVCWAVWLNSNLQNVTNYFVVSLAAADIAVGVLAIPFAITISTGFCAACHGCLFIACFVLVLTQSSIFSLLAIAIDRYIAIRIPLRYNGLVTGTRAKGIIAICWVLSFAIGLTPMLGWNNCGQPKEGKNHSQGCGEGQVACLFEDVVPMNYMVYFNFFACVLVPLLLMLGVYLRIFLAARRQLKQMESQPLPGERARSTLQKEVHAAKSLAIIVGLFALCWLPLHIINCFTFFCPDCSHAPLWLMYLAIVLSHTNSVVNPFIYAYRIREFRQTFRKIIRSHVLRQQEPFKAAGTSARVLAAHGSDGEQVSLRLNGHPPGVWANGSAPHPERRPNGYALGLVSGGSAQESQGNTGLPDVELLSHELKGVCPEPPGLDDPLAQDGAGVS

`CO[C@H]1[C@@H](O)[C@H](N)[C@@H](O[C@H]2O[C@H]([C@H](C)N)CC[C@H]2N)[C@H](O)[C@@H]1N(C)C(=O)CN` [ASTROMICIN]: the IC50 entry (in experiment [1]; in experiment [2]; in experiment [3]; in experiment [4]; in experiment [5]; against Interstitial collagenase) was “Not Active” each time. In addition, the IC50 entry on Adenosine receptor A2a is “Not Active”. Also, the Ki result in experiment [2], in experiment [3] and in experiment [5] was “Not Active” each time.
For the compound `[N-]=[N+]=CC(=O)OC[C@H](N)C(=O)O` [AZASERINE], the IC50 result (in experiment [1]; in experiment [2]; in experiment [3]; in experiment [4]; in experiment [5]; against Interstitial collagenase) was “Not Active” each time. Moreover, the IC50 result at Adenosine receptor A2a is given as “Not Active”. In addition, the Ki result in experiment [2], in experiment [3] and in experiment [5] was “Not Active” in each case.
For the compound `CC[C@H]1OC(=O)[C@H](C)[C@@H](O[C@H]2C[C@@](C)(OC)[C@@H](O)[C@H](C)O2)[C@H](C)[C@@H](O[C@@H]2O[C@H](C)C[C@H](N(C)C)[C@H]2O)[C@](C)(O)C[C@@H](C)CN(C)[C@H](C)[C@@H](O)[C@]1(C)O` [AZITHROMYCIN], the IC50 result (in experiment [1]; in experiment [2]; in experiment [3]; in experiment [4]; in experiment [5]; at Interstitial collagenase) was “Not Active” in each case. For the same compound, at Adenosine receptor A2a, the IC50 entry was “Not Active”. Moreover, the Ki entry in experiment [2], in experiment [3] and in experiment [5] was “Not Active” in each case.
Turning to `CC(C)(C)c1ccc(S(=O)(=O)/C=C/C#N)cc1` [BAY-11-7085], the IC50 result (in experiment [1]; in experiment [2]; in experiment [3]; in experiment [4]; in experiment [5]; against Interstitial collagenase) was “Not Active” throughout. Also, the IC50 entry at Adenosine receptor A2a is reported as “Not Active”. Moreover, the Ki entry in experiment [2], in experiment [3] and in experiment [5] was “Not Active” each time.
Turning to `CCc1oc2ccccc2c1C(=O)c1cc(Br)c(O)c(Br)c1` [BENZBROMARONE], the IC50 result (in experiment [1]; in experiment [2]; in experiment [3]; in experiment [4]; in experiment [5]; against Interstitial collagenase) was “Not Active” in each case. For the same compound, the IC50 result on Adenosine receptor A2a was “Not Active”. Also, the Ki entry in experiment [2], in experiment [3] and in experiment [5] was “Not Active” in each case.
As for `O=c1cc(-c2ccccc2)oc2ccc3ccccc3c12` [BETA-NAPHTHOFLAVONE], the IC50 result (in experiment [1]; in experiment [2]; in experiment [3]; in experiment [4]; in experiment [5]; against Interstitial collagenase) was “Not Active” in each case. The IC50 result on Adenosine receptor A2a is on record as “Not Active”. The Ki result in experiment [2], in experiment [3] and in experiment [5] was “Not Active” each time.
The term pIC50 denotes −log10 of the IC50, conventionally taken in molar units. A word on the pKi: it is −log10 of the Ki, conventionally taken in molar units. Consider `CC(C)C[C@H]1C(=O)N2CCC[C@H]2[C@]2(O)O[C@](NC(=O)[C@@H]3C=C4c5cccc6[nH]c(Br)c(c56)C[C@H]4N(C)C3)(C(C)C)C(=O)N12` [BROMOCRIPTINE], for which the negative logarithm of the IC50 (pIC50) in experiment [1] (read-out: IC50) was 8.16. Besides, the pKi in experiment [1] (read-out: Ki) is 8.55. The IC50 entry (in experiment [2]; in experiment [3]; in experiment [4]; in experiment [5]; on Interstitial collagenase; on Adenosine receptor A2a) was “Not Active” in each case. For the same compound, the Ki result in experiment [2], in experiment [3] and in experiment [5] was “Not Active” each time.
With `CS(=O)(=O)OCCCCOS(C)(=O)=O` [BUSULFAN], the IC50 entry (in experiment [1]; in experiment [2]; in experiment [3]; in experiment [4]; in experiment [5]; against Interstitial collagenase) was “Not Active” each time. The IC50 result on Adenosine receptor A2a is recorded as “Not Active”. Moreover, the Ki result in experiment [2], in experiment [3] and in experiment [5] was “Not Active” throughout.
For `O=C(/C=C/c1ccc(O)c(O)c1)OCCc1ccccc1` [CAFFEIC ACID PHENETHYL ESTER], the IC50 entry (in experiment [1]; in experiment [2]; in experiment [3]; in experiment [4]; in experiment [5]; on Interstitial collagenase) was “Not Active” throughout. Moreover, on Adenosine receptor A2a, the IC50 result is “Not Active”. Moreover, the Ki entry in experiment [2], in experiment [3] and in experiment [5] was “Not Active” each time.
For the compound `COc1cc(CNC(=O)CCCC/C=C/C(C)C)ccc1O` [CAPSAICIN], the IC50 result (in experiment [1]; in experiment [2]; in experiment [3]; in experiment [4]; in experiment [5]; on Interstitial collagenase) was “Not Active” each time. In addition, on Adenosine receptor A2a, the IC50 entry is “Not Active”. Further, the Ki result in experiment [2], in experiment [3] and in experiment [5] was “Not Active” each time.
Turning to `NC(=O)N1c2ccccc2C=Cc2ccccc21` [CARBAMAZEPINE], the IC50 entry (in experiment [1]; in experiment [2]; in experiment [3]; in experiment [4]; in experiment [5]; on Interstitial collagenase) was “Not Active” throughout. For the same compound, at Adenosine receptor A2a, the IC50 result is “Not Active”. For the same compound, the Ki entry in experiment [2], in experiment [3] and in experiment [5] was “Not Active” in each case.
With `CCOC(=O)n1ccn(C)c1=S` [CARBIMAZOLE], the IC50 entry (in experiment [1]; in experiment [2]; in experiment [3]; in experiment [4]; in experiment [5]; on Interstitial collagenase) was “Not Active” in each case. In addition, on Adenosine receptor A2a, the IC50 result was “Not Active”. The Ki result in experiment [2], in experiment [3] and in experiment [5] was “Not Active” throughout.
Turning to `Oc1ccccc1O` [CATECHOL], the IC50 entry (in experiment [1]; in experiment [2]; in experiment [3]; in experiment [4]; in experiment [5]; on Interstitial collagenase) was “Not Active” in each case. The IC50 result at Adenosine receptor A2a is “Not Active”. The Ki result in experiment [2], in experiment [3] and in experiment [5] was “Not Active” each time.
For `CO[C@@]1(NC(=O)CSCC#N)C(=O)N2C(C(=O)O)=C(CSc3nnnn3C)CS[C@@H]21` [CEFMETAZOLE], the IC50 result (in experiment [1]; in experiment [2]; in experiment [3]; in experiment [4]; in experiment [5]; at Interstitial collagenase) was “Not Active” in each case. The IC50 entry on Adenosine receptor A2a was “Not Active”. Also, the Ki entry in experiment [2], in experiment [3] and in experiment [5] was “Not Active” each time.

The record behind these values is ChEMBL document CHEMBL1909046, “DrugMatrix in vitro pharmacology data”.
